Reference: BindingDB's records for patent US11472811 (BEIGENE, LTD., 2022)

Biological target: Adenosine receptor A2a (Homo sapiens, UniProt P29274)
Experiment: Luciferase Reporter Assay
Procedure: HEK293-A2AR-luc2p/CRE/Hygro cells were seeded at a density of 5,000 cells/well in DMEM with 1% FBS and 1 U/mL adenosine deaminase (ADA) (Sigma). After 18 h, the cells were treated with 3 nM CGS21680 plus a series dilution of A2AR antagonist, the compounds disclosed herein at the concentration of 0.1 10000 nM, prepared in DMEM with 1% FBS. After 5 h incubation, the luciferase activity in cells were measured using the Bright-Glo Luciferase Assay System (Promega) according to manufacturer's instructions. The luminescence signal was measured using a PHERAstar FS plate reader (BMG Labtech). […] Maximal luminescence intensity was determined in the presence of 3 nM CGS21680 and was set as 100%. The IC50 value was calculated from a dose dependent inhibition curve across the range of compound concentrations.

Chain of Adenosine receptor A2a (P29274 whole entry): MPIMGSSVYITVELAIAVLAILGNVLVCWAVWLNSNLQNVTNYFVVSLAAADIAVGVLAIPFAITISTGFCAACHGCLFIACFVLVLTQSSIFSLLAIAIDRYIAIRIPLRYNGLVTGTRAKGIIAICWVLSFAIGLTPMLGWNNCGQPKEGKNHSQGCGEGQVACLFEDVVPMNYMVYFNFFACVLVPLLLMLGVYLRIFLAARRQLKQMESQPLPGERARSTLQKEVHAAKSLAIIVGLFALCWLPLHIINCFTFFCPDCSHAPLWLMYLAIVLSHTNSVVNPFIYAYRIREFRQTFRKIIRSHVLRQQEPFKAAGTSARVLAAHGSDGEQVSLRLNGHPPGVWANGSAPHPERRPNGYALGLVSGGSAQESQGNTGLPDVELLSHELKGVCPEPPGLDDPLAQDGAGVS

IC50: 0.194 µM
Structure (SMILES): C[C@@](C(=O)O)(c1ccccc1)n1ncc2c1nc(N)n1nc(-c3ccco3)nc21 [US11472811, Example Intermediate-Ia]
